Assay results taken from patent US20240180900A1, “COMPOUNDS AND METHODS FOR THE TARGETED DEGRADATION OF ANDROGEN RECEPTOR” (Arvinas Operations, Inc., priority 2022, published 2024).
Read-outs that look alike come from different tables or passages of the source.

How the values were obtained:
AR = biological target: T1, AR (Homo sapiens, UniProt P10275); assay: poly-ubiquitination assay; type: cell-based; details: with Compound A treatment
T1 sequence (P10275 1-920): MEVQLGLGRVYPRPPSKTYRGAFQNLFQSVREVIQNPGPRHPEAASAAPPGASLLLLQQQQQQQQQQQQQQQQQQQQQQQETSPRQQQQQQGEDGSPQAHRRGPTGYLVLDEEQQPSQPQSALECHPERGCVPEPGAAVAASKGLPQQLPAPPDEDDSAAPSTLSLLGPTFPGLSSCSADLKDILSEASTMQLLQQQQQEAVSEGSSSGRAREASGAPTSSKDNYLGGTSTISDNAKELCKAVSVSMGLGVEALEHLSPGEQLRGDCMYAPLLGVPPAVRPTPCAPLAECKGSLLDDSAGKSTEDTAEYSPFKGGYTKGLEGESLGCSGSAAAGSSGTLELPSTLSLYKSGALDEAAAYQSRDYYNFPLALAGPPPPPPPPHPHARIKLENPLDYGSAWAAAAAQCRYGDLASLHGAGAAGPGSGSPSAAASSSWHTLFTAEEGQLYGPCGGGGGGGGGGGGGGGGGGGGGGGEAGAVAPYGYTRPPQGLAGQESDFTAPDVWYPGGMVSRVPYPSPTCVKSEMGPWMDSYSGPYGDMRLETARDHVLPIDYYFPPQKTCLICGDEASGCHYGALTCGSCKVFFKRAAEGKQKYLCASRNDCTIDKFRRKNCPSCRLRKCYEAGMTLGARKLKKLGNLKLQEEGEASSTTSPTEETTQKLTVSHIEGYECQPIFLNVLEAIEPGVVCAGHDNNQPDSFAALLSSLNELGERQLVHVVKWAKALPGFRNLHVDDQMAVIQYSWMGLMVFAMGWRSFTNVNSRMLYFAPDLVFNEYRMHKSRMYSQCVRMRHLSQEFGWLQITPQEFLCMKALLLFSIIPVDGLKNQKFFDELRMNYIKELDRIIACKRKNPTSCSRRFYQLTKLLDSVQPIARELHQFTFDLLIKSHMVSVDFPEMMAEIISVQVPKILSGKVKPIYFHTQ

AR D891H = biological target: T2, AR D891H (Homo sapiens, UniProt P10275, D891H); assay: AR degradation in T-Rex-293 cell line, D891H (western blot); type: cell-based; details: T-Rex-293, western blot
T2 construct: expressed in transfected cells; host or cells: T-REx-293
Source text: (§1) FIG. 3 is a graph showing Compound A's ability to degrade clinically relevant mutated forms AR.
(§2) To assess the ability of Compound A to degrade variants of the AR, vectors expressing wild-type AR or mutant AR proteins harboring clinically observed mutations in the ligand binding domain (13 with single amino acid changes or 4 with 2 amino acid changes) (Azad A. A., Volik S. V., Wyatt A. W., et al. Androgen receptor gene aberrations in circulating cell-free DNA: biomarkers of therapeutic resistance in castration-resistant prostate cancer. Clin Cancer Res. 2015; 21:2315-2324; Robinson D., Van Allen E. M., Wu Y. M., et al. Integrative clinical genomics of advanced prostate cancer. Cell. 2015; 161:1215-1228; Ledet E. M., Lilly M. B., Sonpavde G., et al. Comprehensive analysis of AR alterations in circulating tumor DNA from patients with advanced prostate cancer. Oncologist.

AR T878A/D891H = biological target: T3, AR T878A/D891H (Homo sapiens, UniProt P10275, D891H/T878A); assay: AR degradation in T-Rex-293 cell line, T878A/D891H; type: cell-based; details: T-Rex-293, ELISA
T3 construct: expressed in transfected cells; host or cells: T-REx-293
Source text: as §1, §2

[1] = preliminary PK in mCRPC participants (Phase 1/2); type: in vivo, human
Protocol: A chiral bioanalytical method by LC-MS/MS has been developed to characterize the PK of Compound A. Pharmacokinetic analyses were performed using noncompartmental analysis methods.
Mean steady state peak/trough ratio is less than 2, which indicates minimal fluctuation in plasma concentrations once steady state is achieved. Steady state occurs within 3 weeks into treatment.
An ongoing, open-label, Phase 1/2 study in male participants with mCRPC. The Phase 1 dose escalation investigated Compound A doses of 20 mg, 40 mg, 80 mg, 100 mg, 160 mg, 200 mg, 320 mg, 400 mg, 480 mg, and 500 mg administered QD. […] Doses of 100 mg QD and 300 mg QD were selected for the Phase 2 cohort expansion.

[2] = safety in healthy volunteers (food/PPI study)
Source text: The primary endpoints were AUCinf and Cmax. Additional parameters measured included AUClast and Tmax.
The study consisted of 2 independent cohorts: an open-label, randomized, 2-period, crossover Fed/Fasted Cohort to determine food effects; and an open-label, 2-period, fixed sequence PPI Cohort to evaluate interactions with esomeprazole.

[3] = Fed/Fasted Cohort, 200 mg, 14 healthy participants
[4] = healthy volunteer study, both cohorts

T2 sequence (P10275 whole entry D891H): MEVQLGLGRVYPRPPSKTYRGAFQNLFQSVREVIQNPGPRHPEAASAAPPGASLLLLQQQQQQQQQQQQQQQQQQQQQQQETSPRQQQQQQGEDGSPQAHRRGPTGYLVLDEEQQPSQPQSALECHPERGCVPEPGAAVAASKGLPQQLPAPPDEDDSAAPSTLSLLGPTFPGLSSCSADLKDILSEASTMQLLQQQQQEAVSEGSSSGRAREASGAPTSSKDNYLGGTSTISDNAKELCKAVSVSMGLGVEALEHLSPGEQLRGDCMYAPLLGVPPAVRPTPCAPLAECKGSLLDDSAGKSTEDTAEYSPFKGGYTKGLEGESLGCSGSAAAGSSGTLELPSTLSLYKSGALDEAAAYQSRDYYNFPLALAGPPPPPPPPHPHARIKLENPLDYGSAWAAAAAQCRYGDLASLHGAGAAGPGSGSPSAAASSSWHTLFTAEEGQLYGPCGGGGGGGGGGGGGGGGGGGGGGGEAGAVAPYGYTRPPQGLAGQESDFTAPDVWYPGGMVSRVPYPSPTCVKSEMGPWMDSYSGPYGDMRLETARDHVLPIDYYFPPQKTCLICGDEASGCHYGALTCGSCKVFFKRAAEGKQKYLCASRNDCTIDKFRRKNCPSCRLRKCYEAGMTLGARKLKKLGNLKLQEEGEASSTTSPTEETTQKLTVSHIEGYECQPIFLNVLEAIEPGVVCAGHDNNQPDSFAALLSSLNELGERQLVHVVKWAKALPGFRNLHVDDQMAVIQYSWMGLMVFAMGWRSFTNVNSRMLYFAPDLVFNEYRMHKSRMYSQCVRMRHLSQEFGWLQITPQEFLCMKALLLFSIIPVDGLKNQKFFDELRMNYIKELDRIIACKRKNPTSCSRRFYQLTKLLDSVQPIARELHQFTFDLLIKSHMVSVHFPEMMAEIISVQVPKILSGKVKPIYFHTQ
T3 sequence (P10275 whole entry T878A/D891H): as the sequence (P10275 whole entry D891H) above, with T878A counted along it

COc1cc(O[C@H]2C(C)(C)[C@H](NC(=O)c3ccc(N4CCC(CN5CCN(c6ccc(C(=O)N[C@H]7CCC(=O)NC7=O)c(F)c6)CC5)CC4)cc3)C2(C)C)ccc1C#N [Compound A, 4-(4-((1-(4-(((1R,3R)-3-(4-cyano-3-methoxyphenoxy)-2,2,4,4-tetramethylcyclobutyl)carbamoyl)phenyl)piperidin-4-yl)methyl)piperazin-1-yl)-N—((S)-2,6-dioxopiperidin-3-yl)-2-fluorobenzamide]
ubiquitination of the AR (AR): significantly increased
DC50 (AR D891H): 3.9 nM
DC50 (AR T878A/D891H): 3.4 nM
Mean steady state peak/trough ratio ([1]; QD dosing): less than 2
time to steady state ([1]; QD dosing): ≤ 3 weeks
AUC(0-t) ([1]; human, plasma, oral, 20 mg, 20 mg QD, individual value (n = 1), read-out: AUC0-24 Day 1): 178 ng·h/mL
AUC(0-t) ([1]; human, plasma, oral, 20 mg, 20 mg QD, individual value (n = 1), read-out: AUC0-24 Day 21): 997 ng·h/mL
Cmax ([1]; human, plasma, oral, 20 mg, 20 mg QD, individual value (n = 1), read-out: Cmax Day 1): 11.1 ng/mL
Cmax ([1]; human, plasma, oral, 20 mg, 20 mg QD, individual value (n = 1), read-out: Cmax Day 21): 44.1 ng/mL
AUC(0-t) ([1]; human, plasma, oral, 40 mg, 40 mg QD, individual value (n = 1), read-out: AUC0-24 Day 1): 314 ng·h/mL
AUC(0-t) ([1]; human, plasma, oral, 40 mg, 40 mg QD, individual value (n = 1), read-out: AUC0-24 Day 21): 1300 ng·h/mL
Cmax ([1]; human, plasma, oral, 40 mg, 40 mg QD, individual value (n = 1), read-out: Cmax Day 1): 19.1 ng/mL
Cmax ([1]; human, plasma, oral, 40 mg, 40 mg QD, individual value (n = 1), read-out: Cmax Day 21): 60.3 ng/mL
AUC(0-t) ([1]; human, plasma, oral, 80 mg, 80 mg QD, individual value (n = 1), read-out: AUC0-24 Day 1): 432 ng·h/mL
AUC(0-t) ([1]; human, plasma, oral, 80 mg, 80 mg QD, individual value (n = 1), read-out: AUC0-24 Day 21): 3110 ng·h/mL
Cmax ([1]; human, plasma, oral, 80 mg, 80 mg QD, individual value (n = 1), read-out: Cmax Day 1): 22.2 ng/mL
Cmax ([1]; human, plasma, oral, 80 mg, 80 mg QD, individual value (n = 1), read-out: Cmax Day 21): 139 ng/mL
AUC(0-t) ([1]; male, human, plasma, oral, 100 mg, 100 mg QD (N=6), Cycle 1 Day 21, read-out: mean steady-state AUC0-24): 4610 ng·h/mL
AUC(0-t) ([1]; male, human, plasma, oral, 100 mg, 100 mg QD, Mean (CV %), read-out: AUC0-24 Day 1): 816 ng·h/mL
AUC(0-t) ([1]; male, human, plasma, oral, 100 mg, 100 mg QD, Mean (CV %), read-out: AUC0-24 Day 21): 4610 ng·h/mL
Cmax ([1]; male, human, plasma, oral, 100 mg, 100 mg QD, Mean (CV %), read-out: Cmax Day 1): 45.1 ng/mL
Cmax ([1]; male, human, plasma, oral, 100 mg, 100 mg QD, Mean (CV %), read-out: Cmax Day 21): 233 ng/mL
AUC(0-t) ([1]; male, human, plasma, oral, 160 mg, 160 mg QD, Mean (CV %), read-out: AUC0-24 Day 1): 2050 ng·h/mL
AUC(0-t) ([1]; male, human, plasma, oral, 160 mg, 160 mg QD, Mean (CV %), read-out: AUC0-24 Day 21): 8450 ng·h/mL
Cmax ([1]; male, human, plasma, oral, 160 mg, 160 mg QD, Mean (CV %), read-out: Cmax Day 1): 125 ng/mL
Cmax ([1]; male, human, plasma, oral, 160 mg, 160 mg QD, Mean (CV %), read-out: Cmax Day 21): 445 ng/mL
AUC(0-t) ([1]; male, human, plasma, oral, 200 mg, 200 mg QD, Mean (CV %), read-out: AUC0-24 Day 1): 1830 ng·h/mL
AUC(0-t) ([1]; male, human, plasma, oral, 200 mg, 200 mg QD, Mean (CV %), read-out: AUC0-24 Day 21): 11500 ng·h/mL
Cmax ([1]; male, human, plasma, oral, 200 mg, 200 mg QD, Mean (CV %), read-out: Cmax Day 1): 110 ng/mL
Cmax ([1]; male, human, plasma, oral, 200 mg, 200 mg QD, Mean (CV %), read-out: Cmax Day 21): 559 ng/mL
AUC(0-t) ([1]; male, human, plasma, oral, 300 mg, 300 mg QD, Mean (CV %), read-out: AUC0-24 Day 1): 2220 ng·h/mL
AUC(0-t) ([1]; male, human, plasma, oral, 300 mg, 300 mg QD, Mean (CV %), read-out: AUC0-24 Day 21): 14900 ng·h/mL
Cmax ([1]; male, human, plasma, oral, 300 mg, 300 mg QD, Mean (CV %), read-out: Cmax Day 1): 119 ng/mL
Cmax ([1]; male, human, plasma, oral, 300 mg, 300 mg QD, Mean (CV %), read-out: Cmax Day 21): 672 ng/mL
AUC(0-t) ([1]; male, human, plasma, oral, 320 mg, 320 mg QD, Mean (CV %), read-out: AUC0-24 Day 1): 3990 ng·h/mL
AUC(0-t) ([1]; male, human, plasma, oral, 320 mg, 320 mg QD, Mean (CV %), read-out: AUC0-24 Day 21): 23100 ng·h/mL
Cmax ([1]; male, human, plasma, oral, 320 mg, 320 mg QD, Mean (CV %), read-out: Cmax Day 1): 223 ng/mL
Cmax ([1]; male, human, plasma, oral, 320 mg, 320 mg QD, Mean (CV %), read-out: Cmax Day 21): 1070 ng/mL
AUC(0-t) ([1]; male, human, plasma, oral, 400 mg, 400 mg QD, Mean (CV %), read-out: AUC0-24 Day 1): 3350 ng·h/mL
AUC(0-t) ([1]; male, human, plasma, oral, 400 mg, 400 mg QD, Mean (CV %), read-out: AUC0-24 Day 21): 11900 ng·h/mL
Cmax ([1]; male, human, plasma, oral, 400 mg, 400 mg QD, Mean (CV %), read-out: Cmax Day 1): 232 ng/mL
Cmax ([1]; male, human, plasma, oral, 400 mg, 400 mg QD, Mean (CV %), read-out: Cmax Day 21): 526 ng/mL
AUC(0-t) ([1]; male, human, plasma, oral, 480 mg, 480 mg QD, Mean (CV %), read-out: AUC0-24 Day 1): 2540 ng·h/mL
AUC(0-t) ([1]; male, human, plasma, oral, 480 mg, 480 mg QD, Mean (CV %), read-out: AUC0-24 Day 21): 12900 ng·h/mL
Cmax ([1]; male, human, plasma, oral, 480 mg, 480 mg QD, Mean (CV %), read-out: Cmax Day 1): 145 ng/mL
Cmax ([1]; male, human, plasma, oral, 480 mg, 480 mg QD, Mean (CV %), read-out: Cmax Day 21): 644 ng/mL
AUC(0-t) ([1]; male, human, plasma, oral, 500 mg, 500 mg QD, Mean (CV %), read-out: AUC0-24 Day 1): 3590 ng·h/mL
AUC(0-t) ([1]; male, human, plasma, oral, 500 mg, 500 mg QD, Mean (CV %), read-out: AUC0-24 Day 21): 15000 ng·h/mL
Cmax ([1]; male, human, plasma, oral, 500 mg, 500 mg QD, Mean (CV %), read-out: Cmax Day 1): 203 ng/mL
Cmax ([1]; male, human, plasma, oral, 500 mg, 500 mg QD, Mean (CV %), read-out: Cmax Day 21): 703 ng/mL
half-life ([1]; male, human, plasma, oral, QD dosing, mCRPC participants, read-out: effective mean T1/2): 3.46 to 4.62 days
Tmax ([1]; male, human, plasma, oral administration, mCRPC participants, read-out: median Tmax): ~8 h
severity of TEAEs ([2]; Fed/Fasted Cohort): All TEAEs were Grade 1
headache (TEAE) [2, 3]: 4 (28.6%) participants
participants reporting TEAEs [2, 3]: 5 (35.7%) participants
participants with at least one TEAE considered related to Compound A [2, 3]: 3 (21.4%) participants
TRAE dizziness ([2]; Fed/Fasted Cohort, Grade 1): 1 participant
TRAE fatigue ([2]; Fed/Fasted Cohort, Grade 1): 1 participant
TRAE headache ([2]; Fed/Fasted Cohort, Grade 1): 2 participants
TEAEs of Grade 3 or higher ([2]; PPI Cohort): no TEAEs of Grade 3 or higher
participants reporting TEAEs ([2]; PPI Cohort, 300 mg, 16 healthy participants): 8 (50.0%) participants
participants with Grade 2 events ([2]; PPI Cohort, pain in the extremity and CRP increased): 2 (12.5%) participants
tolerability of a single oral dose ([2]; healthy male participants, fasting, fed, or with esomeprazole): generally well tolerated
deaths, SAEs, discontinuations due to AEs [2, 4]: no deaths, SAEs, or participant discontinuations due to AEs
laboratory results, vital signs, physical examinations, 12-lead ECGs, C-SSRS [2, 4]: no clinically significant findings
